In PMC12636028, “Rate-Tunable, Metal-Mediated Amide Bond Cleavage for the Controlled Release of Pharmaceuticals” (Journal of the American Chemical Society, 2025):
Like-named read-outs stand apart in the source and are kept apart here. One block for each substance: values may come before it.

What was measured:
[1] = cleavage assay of cold (natural metal) model tripeptide complexes, monitored by HPLC; assay type: physicochemical; conditions: for kobs: Ga complex, pseudo first-order
Excerpt: Following our previous work focused on N, O acyl shift compatible chelate conjugates, we originally sought to accelerate amide bond cleavage by N-methylation, to enhance the peptide’s leaving group character. We initiated the study by synthesis of a model tripeptide sequence which is capped at the N-terminus by the aza-macrocyclic 1,4,7-triazacyclononane-1,4,7-triacetic acid (NOTA) chelator previously identified as compatible with MMAAC. To this end, tripeptides with the sequence NO2A-X-G-W-NH2 (where X represents the variable complex adjacent amino acid) were constructed. Tryptophan (W) was incorporated as a spectroscopic handle for HPLC monitoring due to its characteristic absorbance at 280 nm, while glycine (G) was included as a short spacer amino acid to minimize the steric influence of W on the metal chelate. Subsequently, chelation with Ga^3+ yielded the corresponding model tripeptide metal complex, [Ga(NO2A)]^+-X-G-W-NH2. The Ga^3+ ion was selected as the gold-standard metal ion since it effectively triggered bond cleavage in the Ser model tripeptide in prior studies, but also formed a thermodynamically and kinetically inert, in vivo compatible metal complex. Following successful complexation and purification, the pH and reaction temperature of the metal complex solution were adjusted to pH 7.4 and 80 °C to initiate cleavage at a readily observable rate (Figure A). Reaction progress was monitored and quantified using high-performance liquid chromatography and mass spectrometry (HPLC-MS, Figure B,C). In the absence of a metal ion, all model tripeptides remained intact at all conditions and temperatures tested (Figures S113–S121). […] In the liquid chromatogram, a second peak with a longer retention time, with the same mass as the reactant, was observed. Previously, we hypothesized that this peak correlated to an intramolecular rearrangement prior to the subsequent amide bond cleavage as part of the N, O-acyl shift reaction.
3 Complex synthesis and characterization
3.1 General Complexation Protocol and Cleavage Assay Procedure
A 5 mg aliquot of the compound, 10-25, was dissolved in 500 μL of room-temperature distilled water.
Two equivalents of the natGa3+salt were added to the solution, which was left to react for 1 hour under room temperature. Full complexation was confirmed by LCMS. The complex was then purified via Sep-Pak C18 short cartridge. The concentration was determined by ICP-OES. The complexes were further characterized via HPLC and HR-ESI-MS.
Cleavage of the cold model tripeptide complexes (0.75 mM, determined by ICP-OES) was observed under 80 °C and pH 7.4. Aqueous buffer solutions were prepared using 10 mM NaOAc (pH 4.5), 10 mM […]
The complex was formed in pH 4.5 10 mM NaOAc buffer under room temperature. An aliquot of the complex was placed in an aqueous solution of the desired pH and incubated for 24 hours at 80 °C. The reaction was monitored via analytical HPLC (Method A). […]
natGallium 2,2'-(7-(2-(benzylamino)-2-oxoethyl)-1,4,7-triazonane-1,4-diyl)diacetic acid, Ga(26). […]
The concentration of Ga(NO3)3 was determined by ICP-OES. The pH of the solution was adjusted to pH = 5 by adding 4 equivalents of 1 M KOH solution. […]
natGallium 2,2'-(7-(2-(benzyl(methyl)amino)-2-oxoethyl)-1,4,7-triazonane-1,4-diyl)diacetic acid, [Ga(27)]ClO4. A 15 mg aliquot of compound 27 was dissolved in 500 μL of room temperature distilled […]
water. […]

[2] = assay type: in vitro ADME; conditions: mouse, plasma
Excerpt: (§1) The cleavage of the radiolabeled conjugates was monitored
(§2) tube. […] After centrifugation at […]

[3] = assay type: physicochemical; conditions: buffer, pH 7.4
Excerpt: as §1, §2

[4] = for half-life of model tripeptide: buffer, pH 7.4; for autolytic release of [67Ga]Ga(NOTA): 67Ga-radiolabeled
Experimental: 4.1 Radiolabeling with 68Ga and Cleavage Assay in HEPES buffer
68Ga-chloride was obtained from the University of Wisconsin Radiopharmaceutical Production Facility, at
an average specific activity of 20 mCi/mL. For radio-labeling of model tripeptides and Ahx-KuE peptide
conjugates, a 35 μL aliquot containing 0.7 mCi of 68GaCl3 was added to the ligand (10 nmol, 265 µL) in
0.067 M of sodium acetate (NaOAc) buffer pH 4.5. Radiolabeling was completed after 15 minutes at
room temperature. The pH of the solution was then adjusted to 7.4 by pH 7.4 1 M HEPES buffer.
radiolabeled conjugates were further characterized with radio-HPLC; if the radiochemical yield was
<98%, a chromatographic purification of the crude radiolabeling mixture was performed. The cleavage of
the radiolabeled conjugates was monitored via radio-HPLC at 80 °C and pH 7.4.
67Ga-citrate was purchased from Jubilant Radiopharma at an average specific activity of 140.0 MBq/mL.
The 67Ga-citrate solution was first converted to 67GaCl using an established solid phase extraction
protocol. The resulting converted 67GaCl3 fraction with the specific activity of 962 MBq/mL was used for
radiolabeling. For radio-labeling of model tripeptides and Ahx-KuE peptide conjugates, a 25 μL aliquot
containing 0.45 mCi of 67GaCl3 was added to the ligand (10 nmol, 110 µL) in 0.15 M of sodium acetate
(NaOAc) buffer pH 4.5. Radiolabeling was completed after 10 minutes at room temperature. The pH of
the solution was then adjusted to 7.4 by adding pH 7.4 1 M HEPES buffer (final concentration: 0.25 M).
The radiolabeled conjugates were further characterized with radio-HPLC; if the radiochemical yield was
the radiolabeled conjugates was monitored via radio-HPLC at 37 °C and 80 °C at pH 7.4.
For radio-labeling of model tripeptides and Ahx-KuE peptide conjugates, a 25 μL aliquot containing 0.3
mCi of 67GaCl3 was added to the ligand (10 nmol, 110 µL) in 0.15 M of sodium acetate (NaOAc) buffer
pH 4.5. Radiolabeling was completed after 10 minutes at room temperature. The radiolabeled complexes
were further characterized by radio-HPLC. The pH of the solution was then adjusted to 7.4 by adding pH
7.4 1M HEPES buffer. Into the buffered mixture was added equal volume of mouse plasma (buffered
radiolabeled complex : mouse plasma 1:1). The cleavage of the radiolabeled conjugates was monitored
via radio-HPLC at 37 °C. At each time point, an aliquot of 20 – 40 µL sample was removed from the
tube. Plasma protein was precipitated by adding 20 – 40 µL of cold acetonitrile. After centrifugation at
4000 rpm for 10 minutes, the supernatant was collected and diluted in 40 – 70 µL H2O for radio-HPLC

[5] = cleavage assays in H2O and D2O for kinetic isotopic effect; assay type: physicochemical; conditions: Ga complex 0.75 mM, pH 7.4 HEPES, 80 °C
Excerpt: Therefore, we conducted additional Kinetic isotopic effect (KIE) measurements for Met (15) and ^NMeMet (18) conjugates, which were chosen to avoid alternative reaction mechanisms. Our experiments determined KIE values (1.46 for Met, 2.81 for ^NMeMet) that imply a secondary KIE, where the proton transfer is not rate-limiting (Figures S262–S265). […] Reaction rates in phosphate buffered saline (PBS) were accelerated, motivating investigation of biologically relevant systems.
5.3 Cleavage assays in H2O and D2O for kinetic isotopic effect measurement Cold cleavage assays of [Ga(15)]+ were conducted in H2O and D2O to investigate the kinetic isotopic effects. In an Eppendorf tube, Ga complexes (0.75 mM) were initially prepared in H2O according to general complexation protocol Section 3.1. The solvent was lyophilized, and the complexes were redissolved in D2O. To minimize residual H2O, the D2O was lyophilized and redissolved three times. The Ga complexes were then redissolved in D2O to a final concentration of 0.75 mM. The solution was buffered to pH 7.4 by adding pH 7.4 HEPES buffer. Cleavage reactions were performed at 80 °C and monitored by analytical HPLC.
Figure S262. Schematic description of preparation and direct complexation procedure of [natGa(15)]+.
Analytical HPLC chromatograms showing autolytic release of the product, natGa-NOTA, in H2O. The kinetics data was fit using Yt = -kt+Y0 in Excel, where Yt represents the ln([concentration of intact species]) in mM, k represents the pseudo first-order reaction rate in hour-1, t represents the incubation time in hour, and Y0 presents the ln([initial concentration of intact species]) in mM.
(1 picture or pasted object on this page, not shown here)
Cold cleavage assays of [Ga(19)]+ were conducted in H2O and D2O to investigate the kinetic isotopic […]
Figure S264. Schematic description of preparation and direct complexation procedure of [natGa(19)]+.

Substance: 68Gallium 2,2'-(7-(2-(((2R,3S)-1-((2-(((S)-1-amino-3-(1H-indol-3-yl)-1-oxopropan-2-yl)amino)-2-oxoethyl)amino)-3-hydroxy-1-oxobutan-2-yl)amino)-2-oxoethyl)-1,4,7-triazonane-1,4-diyl)diacetate [[Ga(14)]+]
cleavage after 6 h ([1]; natGa complex, pH 7.4, 80 °C): 50%

Substance: 68Gallium 2,2'-(7-(2-(((R)-1-((2-(((S)-1-amino-3-(1H-indol-3-yl)-1-oxopropan-2-yl)amino)-2-oxoethyl)amino)-1-oxopropan-2-yl)amino)-2-oxoethyl)-1,4,7-triazonane-1,4-diyl)diacetate [[Ga(12)]+]
cleavage after 6 h ([1]; natGa complex, pH 7.4, 80 °C): 20%

Substance: 68Gallium 2,2'-(7-(2-(((R)-1-((2-(((S)-1-amino-3-(1H-indol-3-yl)-1-oxopropan-2-yl)amino)-2-oxoethyl)amino)-3-hydroxy-1-oxopropan-2-yl)amino)-2-oxoethyl)-1,4,7-triazonane-1,4-diyl)diacetate [[Ga(13)]+]
half-life of model tripeptide [2]: 182 h | half-life of model tripeptide [3]: 5.20 h | half-life of model tripeptide [4]: 365 h

Substance: 68Gallium (R)-2,2'-(7-(2-((2-((2-((1-amino-3-(1H-indol-3-yl)-1-oxopropan-2-yl)amino)-2-oxoethyl)amino)-2-oxoethyl)amino)-2-oxoethyl)-1,4,7-triazonane-1,4-diyl)diacetate [[Ga(10)]+]
half-life of model tripeptide [2]: not observed | hydrolysis of the Ga complex ([1]; pH 4.5, 80 °C): hydrolyzed | hydrolysis of the Ga complex ([1]; pH > 5, 80 °C): inert | half-life of model tripeptide [3]: not obser ved | autolytic release of [67Ga]Ga(NOTA) ([4]; 37 °C and pH 7.4): no significant autolytic release | autolytic release of [67Ga]Ga(NOTA) ([4]; 80 °C and pH 7.4): no significant autolytic release | half-life of model tripeptide [4]: not observed

Further lines, with some results ahead:

half-life of model tripeptide [2]: 6.12 h | cleaved after 1 h ([1]; natGa complex, pH 7.4, 80 °C, after 1 h): 100% | half-life of model tripeptide [3]: 0.22 h | half-life of model tripeptide [4]: 3.65 h
Substance: 68Gallium 2,2'-(7-(2-(((R)-1-((2-(((S)-1-amino-3-(1H-indol-3-yl)-1-oxopropan-2-yl)amino)-2-oxoethyl)amino)-3-hydroxy-1-oxopropan-2-yl)(methyl)amino)-2-oxoethyl)-1,4,7-triazonane-1,4-diyl)diacetate [[Ga(16)]+]

half-life of model tripeptide [2]: 151 h | half-life of model tripeptide [3]: 0.92 h | half-life of model tripeptide [4]: 28.1 h
Substance: 68Gallium 2,2'-(7-(2-(((R)-1-((2-(((S)-1-amino-3-(1H-indol-3-yl)-1-oxopropan-2-yl)amino)-2-oxoethyl)amino)-4-(methylthio)-1-oxobutan-2-yl)(methyl)amino)-2-oxoethyl)-1,4,7-triazonane-1,4-diyl)diacetate [[Ga(18)]+]
krel (relative rate enhancement versus 25 mM pH 7.4 HEPES) ([1]; 25 mM HEPES, pH 7.4, 80 °C): 1 | krel (relative rate enhancement versus 25 mM pH 7.4 HEPES) ([1]; 25 mM PBS, pH 7.4, 80 °C): 4.4 | krel (relative rate enhancement versus 25 mM pH 7.4 HEPES) ([1]; 25 mM PIPES, pH 7.4, 80 °C): 1.13 | krel (relative rate enhancement versus 25 mM pH 7.4 HEPES) ([1]; 250 mM HEPES, pH 7.4, 80 °C): 2.44 | kobs ([1]; 25 mM HEPES, pH 7.4, 80 °C): 0.45 h⁻¹ | kobs ([1]; 25 mM PBS, pH 7.4, 80 °C): 1.98 h⁻¹ | kobs ([1]; 25 mM PIPES, pH 7.4, 80 °C): 0.51 h⁻¹ | kobs ([1]; 250 mM HEPES, pH 7.4, 80 °C): 1.10 h⁻¹ | pseudo first-order reaction rate in D2O ([5]; D2O): 0.16 h⁻¹ | pseudo first-order reaction rate in H2O ([5]; H2O): 0.45 h⁻¹ | KIE (kinetic isotopic effect) ([5]; H2O vs D2O): 2.81
